Measurements: the OPERA property sets (Mansouri et al. 2018)
≈ marks a conversion by molar mass, not a printed value.

Conditions: not given

Compound | solubility [mM]
CCOc1ccc(C(=O)OCCN(CC)CC)cc1 | 1.93 (≈ 0.512 mg/mL)
CNC(=O)Oc1cccc(N=CN(C)C)c1 | 4.52 (≈ 1 mg/mL)
O=C(O)c1c(Cl)cccc1Cl | 74 (≈ 14.1 mg/mL)
CCOc1ccc2nc(S(N)(=O)=O)sc2c1 | 0.155 (≈ 0.04 mg/mL)
O=C(O)c1c(O)cccc1O | 62 (≈ 9.56 mg/mL)
COc1coc(CSP(=O)(OC)OC)cc1=O | 5350 (≈ 1500 mg/mL)

Same assay, conditions: 20 °C

Compound | solubility [mM]
COC(=O)C(C)N(C(=O)c1ccco1)c1c(C)cccc1C (stereo not given) | 0.763 (≈ 0.23 mg/mL)
Cc1ccccc1OCC(O)CO (stereo not given) | 64.8 (≈ 11.8 mg/mL)
O=c1ccc2ccccc2[nH]1 | 7.25 (≈ 1.05 mg/mL)
c1cnc2ncncc2n1 | 1080 (≈ 143 mg/mL)
Oc1cccc2cccnc12 | 3.83 (≈ 0.556 mg/mL)
CC(=O)CCC1C(=O)N(c2ccccc2)N(c2ccccc2)C1=O | 0.54 (≈ 0.174 mg/mL)
CCCCCC(=O)OC | 10.2 (≈ 1.33 mg/mL)
Cc1ccc(Cl)cc1 | 0.837 (≈ 0.106 mg/mL)
Clc1ccc(-c2cccc(Cl)c2Cl)c(Cl)c1 | 0.000208 (≈ 6.08e-05 mg/mL)
Cc1occc1C(=O)Nc1ccccc1 | 0.497 (≈ 0.1 mg/mL)
C=CC(=O)Oc1c(Br)cc(Cl)c2cccnc12 | 0.0192 (≈ 0.006 mg/mL)
C[C@@H]1CN[C@@H](C)CN1 | 3060 (≈ 350 mg/mL)
CC(=O)C=C(C)C | 294 (≈ 28.9 mg/mL)
Clc1ccc(-c2cc(Cl)c(Cl)c(Cl)c2Cl)cc1Cl | 1.48e-05 (≈ 5.33e-06 mg/mL)
OCCCBr | 1020 (≈ 142 mg/mL)
O=[N+]([O-])c1cc(Cl)c(Cl)c(Cl)c1Cl | 0.028 (≈ 0.0073 mg/mL)
O=[N+]([O-])c1cc(Cl)c(Cl)cc1Cl | 0.13 (≈ 0.0294 mg/mL)
COc1ccc2c(c1O)[C@]13CCN(C)[C@H](C2)[C@@H]1C=CC(=O)C3 | 13.4 (≈ 4 mg/mL)
CC1CNCCN1 (stereo not given) | 4340 (≈ 435 mg/mL)
CCCCOC(=O)C(C)O (stereo not given) | 274 (≈ 40 mg/mL)
Oc1cccc2ncccc12 | 2.87 (≈ 0.417 mg/mL)
Oc1ccc2c(c1)CCCC2 | 10.1 (≈ 1.5 mg/mL)
NCCS(=O)(=O)O | 645 (≈ 80.7 mg/mL)
CCCCCCCCCCCCC(=O)O | 0.154 (≈ 0.033 mg/mL)
CCCCCCCC(=O)OC | 0.407 (≈ 0.0644 mg/mL)

Same assay, conditions: 21 °C

Compound | solubility [mM]
CN(C)[C@@H]1C(O)=C(C(N)=O)C(=O)[C@@]2(O)C(O)=C3C(=O)c4c(O)ccc(Cl)c4[C@@H](O)[C@H]3C[C@@H]12 | 3.26 (≈ 1.52 mg/mL)
O=C(O)CCCCCCCCCC(=O)O | 23.6 (≈ 5.1 mg/mL)

Same assay, conditions: 22 °C

Compound | solubility [mM]
CNC(=O)ON=C(CSC)C(C)(C)C | 23.8 (≈ 5.2 mg/mL)
O=C(c1ccccc1)c1c(O)cc(O)cc1O | 13.5 (≈ 3.1 mg/mL)
OCc1ccccc1O | 507 (≈ 63 mg/mL)
COC(=O)NS(=O)(=O)c1ccc(N)cc1 | 21.7 (≈ 5 mg/mL)
C1CCN2C[C@@H]3C[C@@H](CN4CCCC[C@@H]34)[C@H]2C1 | 13 (≈ 3.04 mg/mL)
CCCOC=O | 250 (≈ 22 mg/mL)
CCC1(c2ccccc2)C(=O)NCNC1=O | 2.29 (≈ 0.5 mg/mL)

Same assay, conditions: 23 °C

Compound | solubility [mM]
C=C(C)C1CC=C(C)C(=O)C1 (stereo not given) | 8.67 (≈ 1.3 mg/mL)
Nc1nc(N)[nH]c(=O)n1 | 0.59 (≈ 0.075 mg/mL)

Same assay, conditions: 24 °C

Compound | solubility [mM]
CC(=O)OCCN1CCN(CCCN2c3ccccc3Sc3ccc(Cl)cc32)CC1 | 0.02 (≈ 0.00892 mg/mL)
CC(C)N(N=O)C(C)C | 99.9 (≈ 13 mg/mL)

Same assay, conditions: 25 °C

Compound | solubility [mM]
C#C[C@]1(OC(C)=O)CC[C@H]2[C@@H]3CCC4=CC(=O)CC[C@@H]4[C@H]3CC[C@@]21C | 0.0161 (≈ 0.00547 mg/mL)
CN(C)C(=O)N[C@@H]1C[C@@H]2C[C@H]1[C@@H]1CCC[C@H]21 | 0.675 (≈ 0.15 mg/mL)
O=C(O)c1ccccc1[N+](=O)[O-] | 47 (≈ 7.85 mg/mL)
O=[N+]([O-])O[C@H]1CO[C@H]2[C@@H]1OC[C@H]2O[N+](=O)[O-] | 2.33 (≈ 0.55 mg/mL)
CC(=O)O[C@]1(C(C)=O)CC[C@H]2[C@@H]3C=C(Cl)C4=CC(=O)C=C[C@]4(C)[C@H]3CC[C@@]21C | 0.0113 (≈ 0.00457 mg/mL)
c1ccc2c(c1)Cc1c-2ccc2ccccc12 | 0.00021 (≈ 4.54e-05 mg/mL)
CC(C)(OO)c1ccccc1 | 91.3 (≈ 13.9 mg/mL)
c1ccc2c(c1)Cc1cc3ccccc3cc1-2 | 1.1e-05 (≈ 2.38e-06 mg/mL)
Nc1cc[nH]c(=O)n1 | 72 (≈ 8 mg/mL)
c1cc2ccc3ccc4ccc5cccc6c(c1)c2c3c4c56 | 9.41e-07 (≈ 2.6e-07 mg/mL)
CC1CCCCC1 | 0.152 (≈ 0.015 mg/mL)
C#CC(C)(C)NC(=O)c1cc(Cl)cc(Cl)c1 | 0.0586 (≈ 0.015 mg/mL)
CCc1cccc2ccccc12 | 0.0685 (≈ 0.0107 mg/mL)
CCCCCCCCCCCCCCCCCC | 2.36e-05 (≈ 6e-06 mg/mL)
C[C@]12CCC(=O)C=C1CC[C@@H]1[C@@H]2CC[C@]2(C)C(=O)CC[C@@H]12 | 0.202 (≈ 0.0578 mg/mL)
O=S(=O)(O)CS(=O)(=O)O | 8900 (≈ 1570 mg/mL)
CC1=CCCCC1 | 0.541 (≈ 0.052 mg/mL)
C#CCCCC#C | 17.5 (≈ 1.61 mg/mL)
CCC#CC(C)C | 1.8 (≈ 0.173 mg/mL)
C[C@]12CC[C@H]3C(=CCc4cc(O)ccc43)[C@@H]1CCC2=O | 0.00525 (≈ 0.00141 mg/mL)
Clc1cc(Cl)cc(Cl)c1 | 0.0331 (≈ 0.00601 mg/mL)

Compound | solubility [mM]
C=CCC1(C(C)C)C(=O)NC(=O)NC1=O | 19.4 (≈ 4.08 mg/mL)
CCCCCCCCCCCCCCCCCCCCCCCCCCCCCCCCCCCC | 3.35e-06 (≈ 1.7e-06 mg/mL)
Clc1cccc(-c2cccc(Cl)c2)c1 | 0.00159 (≈ 0.000355 mg/mL)
CCCCC=O | 136 (≈ 11.7 mg/mL)
O=C(O)c1cc(=O)c(O)c(C(=O)O)o1 | 42 (≈ 8.4 mg/mL)
O=c1cc[nH]c(=S)[nH]1 | 5.53 (≈ 0.709 mg/mL)
O=C(O)c1cccc([N+](=O)[O-])c1C(=O)O | 95.2 (≈ 20.1 mg/mL)
COc1ccc2c(c1OC)C(=O)OC2 | 12.9 (≈ 2.5 mg/mL)
Cc1cccc2c1Cc1ccccc1-2 | 0.00605 (≈ 0.00109 mg/mL)
O=C(O)c1cccnc1Nc1cccc(C(F)(F)F)c1 | 0.0673 (≈ 0.019 mg/mL)
Cc1ccccc1O | 239 (≈ 25.9 mg/mL)
CCCCCCCC=O | 4.37 (≈ 0.56 mg/mL)
CC(=O)[C@@]1(O)CC[C@H]2[C@@H]3C[C@H](C)C4=CC(=O)C=C[C@]4(C)[C@@]3(F)[C@@H](O)C[C@@]21C | 0.0797 (≈ 0.03 mg/mL)
CCCCCCCC | 0.00578 (≈ 0.00066 mg/mL)
Cc1cccc(C)c1NC(=O)c1cc(S(N)(=O)=O)c(Cl)cc1O | 0.163 (≈ 0.058 mg/mL)
CC(C)C(C)C(C)C | 0.0201 (≈ 0.0023 mg/mL)
CC(C)CC(C)C | 0.0549 (≈ 0.0055 mg/mL)
C[C@@H]1CC[C@@]2(OC1)O[C@H]1C[C@H]3[C@@H]4CC=C5C[C@@H](O)CC[C@]5(C)[C@H]4CC[C@]3(C)[C@H]1[C@@H]2C | 4.82e-05 (≈ 2e-05 mg/mL)
ClC(Cl)=C(c1ccc(Cl)cc1)c1ccccc1Cl | 0.00044 (≈ 0.00014 mg/mL)
C=CCC1(CC(C)C)C(=O)NC(=O)NC1=O | 7.6 (≈ 1.7 mg/mL)
CCC(O)(CC)CC | 145 (≈ 16.8 mg/mL)

Compound | solubility [mM]
CCOC(=O)C=Cc1ccccc1 | 1.01 (≈ 0.178 mg/mL)
Clc1ccc2c(c1)Oc1cc(Cl)ccc1O2 | 6.6e-05 (≈ 1.67e-05 mg/mL)
O=C(O)c1ccnc(C(=O)O)c1 | 14.9 (≈ 2.49 mg/mL)
CCCCCCCCCCCCCC(=O)O | 0.00468 (≈ 0.00107 mg/mL)
O=C(O)COc1c(Cl)ccc(Cl)c1Cl | 2.4 (≈ 0.613 mg/mL)
Cc1cnc2c(ccc3c(C)c(C)cnc32)c1C | 0.00639 (≈ 0.00151 mg/mL)
COC1=CC(=O)C[C@@H](C)[C@]12Oc1c(Cl)c(OC)cc(OC)c1C2=O | 0.0245 (≈ 0.00864 mg/mL)
Cc1ccccc1S(N)(=O)=O | 9.46 (≈ 1.62 mg/mL)
Ic1cccc2ccccc12 | 0.0282 (≈ 0.00716 mg/mL)
O=C(Oc1ccccc1)c1ccccc1O | 0.7 (≈ 0.15 mg/mL)
COc1ccc2c(c1)c(CC(=O)O)c(C)n2C(=O)c1ccc(Cl)cc1 | 0.00262 (≈ 0.000937 mg/mL)
Nc1ncnc2[nH]cnc12 | 7.62 (≈ 1.03 mg/mL)
Cc1ccc(C)c2c(C)cccc12 | 0.0123 (≈ 0.0021 mg/mL)
Cc1ccc2ccccc2c1 | 0.173 (≈ 0.0246 mg/mL)
CCCCc1c(C)nc(N(C)C)nc1O | 5.73 (≈ 1.2 mg/mL)
C1CCCCCC1 | 0.306 (≈ 0.03 mg/mL)
Fc1ccc(I)cc1 | 0.749 (≈ 0.166 mg/mL)
CCCCC(N)C(=O)O (racemic) | 88.5 (≈ 11.6 mg/mL)
Fc1cccc(Br)c1 | 2.16 (≈ 0.378 mg/mL)

Same assay, conditions: 27 °C

Compound | solubility [mM]
CC(=O)[C@@]1(O)CC[C@H]2[C@@H]3CCC4=CC(=O)CC[C@]4(C)[C@H]3CC[C@@]21C | 0.0196 (≈ 0.00648 mg/mL)

Same assay, conditions: 30 °C

Compound | solubility [mM]
Cc1ccc(S(=O)(=O)NC(=O)NN2CCCCCC2)cc1 | 0.21 (≈ 0.0654 mg/mL)
CC1OC(C)OC(C)O1 (stereo not given) | 847 (≈ 112 mg/mL)
COc1cnc(NS(=O)(=O)c2ccc(N)cc2)nc1 | 2.6 (≈ 0.73 mg/mL)
COP1(=S)OCc2ccccc2O1 (stereo not given) | 0.268 (≈ 0.058 mg/mL)
